{"source": "PubChem BioAssay AID1963829", "about": "(Molecular Pharmacology Branch, DTP, NCI, 2024)"}
{"test_system": "935938-334-R-J1-PDC complex spheroid viability", "experiment": "Anticancer human tumor 935938-334-R-J1-PDC patient-derived small intestine adenocarcinoma cell line growth inhibition [POLQ]", "conditions": "curve of first compound; second compound 0.0316 µM", "summary_of_the_method": "(§1)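 Patient-derived tumour cells were co-cultured with HUVEC and mesenchymal stem cells as multicellular spheroids at 37 °C. They were treated with POLQ inhibitors (novobiocin, ART-558, RP6685) alone or combined with other agents. Top concentrations were at or near clinical Cmax (otherwise 10 microM; SN-38 at 1 microM), decreasing in half-log steps.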", "units": {"IC50": "µM"}}
{"smiles": "COc1ccc([C@@H](O)c2cc(-c3ncnc4cc(N5CCOCC5)ccc34)c(F)cc2Cl)nn1", "note": "+ COC1C(OC(N)=O)C(O)C(Oc2ccc3c(O)c(NC(=O)c4ccc(O)c(CC=C(C)C)c4)c(=O)oc3c2C)OC1(C)C", "IC50": 5.47}
{"smiles": "Nc1ccn(C2OC(CO)C(O)C2(F)F)c(=O)n1", "note": "(configuration not stated) + Cc1cccc(N(C)C(=O)C2C(O)CCN2c2nc(C)cc(C(F)(F)F)c2C#N)c1", "IC50": "< 0.0316"}
{"smiles": "COc1cc2cc(C(=O)CCC(=O)O)sc2cc1OC", "note": "+ Cc1cccc(N(C)C(=O)C2C(O)CCN2c2nc(C)cc(C(F)(F)F)c2C#N)c1", "IC50": "> 10"}
{"smiles": "O=C(c1cc(Cc2n[nH]c(=O)c3ccccc23)ccc1F)N1CCN(C(=O)C2CC2)CC1", "note": "+ COC1C(OC(N)=O)C(O)C(Oc2ccc3c(O)c(NC(=O)c4ccc(O)c(CC=C(C)C)c4)c(=O)oc3c2C)OC1(C)C", "IC50": "> 10"}
{"smiles": "O=C(Nc1ccc(O)c(NS(=O)(=O)c2ccc(F)cc2)c1)c1ccc(-c2ccccc2)cc1", "note": "+ Cc1cccc(N(C)C(=O)C2C(O)CCN2c2nc(C)cc(C(F)(F)F)c2C#N)c1", "IC50": "> 10"}
{"smiles": "COc1cc(C2c3cc4c(cc3C(OC3OC5COC(C)OC5C(O)C3O)C3COC(=O)C23)OCO4)cc(OC)c1O", "note": "(configuration not stated) + Cc1cccc(N(C)C(=O)C2C(O)CCN2c2nc(C)cc(C(F)(F)F)c2C#N)c1", "IC50": 0.577}
{"smiles": "CC1COCCN1c1cc(C2(S(C)(=N)=O)CC2)nc(-c2ccnc3[nH]ccc23)n1", "note": "(configuration not stated) + COC1C(OC(N)=O)C(O)C(Oc2ccc3c(O)c(NC(=O)c4ccc(O)c(CC=C(C)C)c4)c(=O)oc3c2C)OC1(C)C", "IC50": 2.74}
{"smiles": "COc1cccc2c1C(=O)c1c(O)c3c(c(O)c1C2=O)CC(O)(C(=O)CO)CC3OC1CC(N)C(O)C(C)O1", "note": "(configuration not stated) + Cc1cccc(N(C)C(=O)C2C(O)CCN2c2nc(C)cc(C(F)(F)F)c2C#N)c1", "IC50": 0.0555}
{"test_system": "935938-334-R-J1-PDC complex spheroid viability", "experiment": "Anticancer human tumor 935938-334-R-J1-PDC cell line growth inhibition [POLQ];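 further: spheroids exposed to drugs for seven days before viability read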", "conditions": "curve of first compound; second compound 0.1 µM", "summary_of_the_method": "as §1", "units": {"IC50": "µM"}}
{"smiles": "COc1ccc([C@@H](O)c2cc(-c3ncnc4cc(N5CCOCC5)ccc34)c(F)cc2Cl)nn1", "note": "+ COC1C(OC(N)=O)C(O)C(Oc2ccc3c(O)c(NC(=O)c4ccc(O)c(CC=C(C)C)c4)c(=O)oc3c2C)OC1(C)C", "IC50": 4.65}
{"smiles": "Nc1ccn(C2OC(CO)C(O)C2(F)F)c(=O)n1", "note": "(configuration not stated) + Cc1cccc(N(C)C(=O)C2C(O)CCN2c2nc(C)cc(C(F)(F)F)c2C#N)c1", "IC50": "< 0.0316"}
{"smiles": "COc1cc2cc(C(=O)CCC(=O)O)sc2cc1OC", "note": "+ Cc1cccc(N(C)C(=O)C2C(O)CCN2c2nc(C)cc(C(F)(F)F)c2C#N)c1", "IC50": "> 10"}
{"smiles": "O=C(c1cc(Cc2n[nH]c(=O)c3ccccc23)ccc1F)N1CCN(C(=O)C2CC2)CC1", "note": "+ COC1C(OC(N)=O)C(O)C(Oc2ccc3c(O)c(NC(=O)c4ccc(O)c(CC=C(C)C)c4)c(=O)oc3c2C)OC1(C)C", "IC50": "> 10"}
{"smiles": "O=C(Nc1ccc(O)c(NS(=O)(=O)c2ccc(F)cc2)c1)c1ccc(-c2ccccc2)cc1", "note": "+ Cc1cccc(N(C)C(=O)C2C(O)CCN2c2nc(C)cc(C(F)(F)F)c2C#N)c1", "IC50": "> 10"}
{"smiles": "COc1cc(C2c3cc4c(cc3C(OC3OC5COC(C)OC5C(O)C3O)C3COC(=O)C23)OCO4)cc(OC)c1O", "note": "(configuration not stated) + Cc1cccc(N(C)C(=O)C2C(O)CCN2c2nc(C)cc(C(F)(F)F)c2C#N)c1", "IC50": 0.87}
{"smiles": "CC1COCCN1c1cc(C2(S(C)(=N)=O)CC2)nc(-c2ccnc3[nH]ccc23)n1", "note": "(configuration not stated) + COC1C(OC(N)=O)C(O)C(Oc2ccc3c(O)c(NC(=O)c4ccc(O)c(CC=C(C)C)c4)c(=O)oc3c2C)OC1(C)C", "IC50": 2.13}
{"smiles": "COc1cccc2c1C(=O)c1c(O)c3c(c(O)c1C2=O)CC(O)(C(=O)CO)CC3OC1CC(N)C(O)C(C)O1", "note": "(configuration not stated) + Cc1cccc(N(C)C(=O)C2C(O)CCN2c2nc(C)cc(C(F)(F)F)c2C#N)c1", "IC50": 0.0874}
{"test_system": "935938-334-R-J1-PDC complex spheroid viability", "experiment": "Anticancer human tumor 935938-334-R-J1-PDC cell line growth inhibition [POLQ];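 further: spheroids exposed to drugs for seven days before viability read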", "conditions": "curve of first compound; second compound 0.316 µM", "summary_of_the_method": "as §1", "units": {"IC50": "µM"}}
{"smiles": "COc1ccc([C@@H](O)c2cc(-c3ncnc4cc(N5CCOCC5)ccc34)c(F)cc2Cl)nn1", "note": "+ COC1C(OC(N)=O)C(O)C(Oc2ccc3c(O)c(NC(=O)c4ccc(O)c(CC=C(C)C)c4)c(=O)oc3c2C)OC1(C)C", "IC50": 4.59}
{"smiles": "Nc1ccn(C2OC(CO)C(O)C2(F)F)c(=O)n1", "note": "(configuration not stated) + Cc1cccc(N(C)C(=O)C2C(O)CCN2c2nc(C)cc(C(F)(F)F)c2C#N)c1", "IC50": "< 0.0316"}
{"smiles": "COc1cc2cc(C(=O)CCC(=O)O)sc2cc1OC", "note": "+ Cc1cccc(N(C)C(=O)C2C(O)CCN2c2nc(C)cc(C(F)(F)F)c2C#N)c1", "IC50": "> 10"}
{"smiles": "O=C(c1cc(Cc2n[nH]c(=O)c3ccccc23)ccc1F)N1CCN(C(=O)C2CC2)CC1", "note": "+ COC1C(OC(N)=O)C(O)C(Oc2ccc3c(O)c(NC(=O)c4ccc(O)c(CC=C(C)C)c4)c(=O)oc3c2C)OC1(C)C", "IC50": "> 10"}
{"smiles": "O=C(Nc1ccc(O)c(NS(=O)(=O)c2ccc(F)cc2)c1)c1ccc(-c2ccccc2)cc1", "note": "+ Cc1cccc(N(C)C(=O)C2C(O)CCN2c2nc(C)cc(C(F)(F)F)c2C#N)c1", "IC50": "> 10"}
{"smiles": "COc1cc(C2c3cc4c(cc3C(OC3OC5COC(C)OC5C(O)C3O)C3COC(=O)C23)OCO4)cc(OC)c1O", "note": "(configuration not stated) + Cc1cccc(N(C)C(=O)C2C(O)CCN2c2nc(C)cc(C(F)(F)F)c2C#N)c1", "IC50": 0.743}
{"smiles": "CC1COCCN1c1cc(C2(S(C)(=N)=O)CC2)nc(-c2ccnc3[nH]ccc23)n1", "note": "(configuration not stated) + COC1C(OC(N)=O)C(O)C(Oc2ccc3c(O)c(NC(=O)c4ccc(O)c(CC=C(C)C)c4)c(=O)oc3c2C)OC1(C)C", "IC50": 2.22}
{"smiles": "COc1cccc2c1C(=O)c1c(O)c3c(c(O)c1C2=O)CC(O)(C(=O)CO)CC3OC1CC(N)C(O)C(C)O1", "note": "(configuration not stated) + Cc1cccc(N(C)C(=O)C2C(O)CCN2c2nc(C)cc(C(F)(F)F)c2C#N)c1", "IC50": 0.052}
{"test_system": "935938-334-R-J1-PDC complex spheroid viability", "experiment": "Anticancer human tumor 935938-334-R-J1-PDC cell line growth inhibition [POLQ];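 further: spheroids exposed to drugs for seven days before viability read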", "conditions": "curve of first compound; second compound 1 µM", "summary_of_the_method": "as §1", "units": {"IC50": "µM"}}
{"smiles": "COc1ccc([C@@H](O)c2cc(-c3ncnc4cc(N5CCOCC5)ccc34)c(F)cc2Cl)nn1", "note": "+ COC1C(OC(N)=O)C(O)C(Oc2ccc3c(O)c(NC(=O)c4ccc(O)c(CC=C(C)C)c4)c(=O)oc3c2C)OC1(C)C", "IC50": 3.26}
{"smiles": "Nc1ccn(C2OC(CO)C(O)C2(F)F)c(=O)n1", "note": "(configuration not stated) + Cc1cccc(N(C)C(=O)C2C(O)CCN2c2nc(C)cc(C(F)(F)F)c2C#N)c1", "IC50": "< 0.0316"}
{"smiles": "COc1cc2cc(C(=O)CCC(=O)O)sc2cc1OC", "note": "+ Cc1cccc(N(C)C(=O)C2C(O)CCN2c2nc(C)cc(C(F)(F)F)c2C#N)c1", "IC50": "> 10"}
{"smiles": "O=C(c1cc(Cc2n[nH]c(=O)c3ccccc23)ccc1F)N1CCN(C(=O)C2CC2)CC1", "note": "+ COC1C(OC(N)=O)C(O)C(Oc2ccc3c(O)c(NC(=O)c4ccc(O)c(CC=C(C)C)c4)c(=O)oc3c2C)OC1(C)C", "IC50": "> 10"}
{"smiles": "O=C(Nc1ccc(O)c(NS(=O)(=O)c2ccc(F)cc2)c1)c1ccc(-c2ccccc2)cc1", "note": "+ Cc1cccc(N(C)C(=O)C2C(O)CCN2c2nc(C)cc(C(F)(F)F)c2C#N)c1", "IC50": "> 10"}
{"smiles": "COc1cc(C2c3cc4c(cc3C(OC3OC5COC(C)OC5C(O)C3O)C3COC(=O)C23)OCO4)cc(OC)c1O", "note": "(configuration not stated) + Cc1cccc(N(C)C(=O)C2C(O)CCN2c2nc(C)cc(C(F)(F)F)c2C#N)c1", "IC50": 0.471}
{"smiles": "CC1COCCN1c1cc(C2(S(C)(=N)=O)CC2)nc(-c2ccnc3[nH]ccc23)n1", "note": "(configuration not stated) + COC1C(OC(N)=O)C(O)C(Oc2ccc3c(O)c(NC(=O)c4ccc(O)c(CC=C(C)C)c4)c(=O)oc3c2C)OC1(C)C", "IC50": 3.88}
{"smiles": "COc1cccc2c1C(=O)c1c(O)c3c(c(O)c1C2=O)CC(O)(C(=O)CO)CC3OC1CC(N)C(O)C(C)O1", "note": "(configuration not stated) + Cc1cccc(N(C)C(=O)C2C(O)CCN2c2nc(C)cc(C(F)(F)F)c2C#N)c1", "IC50": 0.0753}
{"test_system": "935938-334-R-J1-PDC complex spheroid viability", "experiment": "Anticancer human tumor 935938-334-R-J1-PDC cell line growth inhibition [POLQ];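 further: spheroids exposed to drugs for seven days before viability read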", "conditions": "curve of first compound; second compound 3.16 µM", "summary_of_the_method": "as §1", "units": {"IC50": "µM"}}
{"smiles": "COc1ccc([C@@H](O)c2cc(-c3ncnc4cc(N5CCOCC5)ccc34)c(F)cc2Cl)nn1", "note": "+ COC1C(OC(N)=O)C(O)C(Oc2ccc3c(O)c(NC(=O)c4ccc(O)c(CC=C(C)C)c4)c(=O)oc3c2C)OC1(C)C", "IC50": 6.59}
{"smiles": "Nc1ccn(C2OC(CO)C(O)C2(F)F)c(=O)n1", "note": "(configuration not stated) + Cc1cccc(N(C)C(=O)C2C(O)CCN2c2nc(C)cc(C(F)(F)F)c2C#N)c1", "IC50": "< 0.0316"}
{"smiles": "COc1cc2cc(C(=O)CCC(=O)O)sc2cc1OC", "note": "+ Cc1cccc(N(C)C(=O)C2C(O)CCN2c2nc(C)cc(C(F)(F)F)c2C#N)c1", "IC50": "> 10"}
{"smiles": "O=C(c1cc(Cc2n[nH]c(=O)c3ccccc23)ccc1F)N1CCN(C(=O)C2CC2)CC1", "note": "+ COC1C(OC(N)=O)C(O)C(Oc2ccc3c(O)c(NC(=O)c4ccc(O)c(CC=C(C)C)c4)c(=O)oc3c2C)OC1(C)C", "IC50": "> 10"}
{"smiles": "O=C(Nc1ccc(O)c(NS(=O)(=O)c2ccc(F)cc2)c1)c1ccc(-c2ccccc2)cc1", "note": "+ Cc1cccc(N(C)C(=O)C2C(O)CCN2c2nc(C)cc(C(F)(F)F)c2C#N)c1", "IC50": "> 10"}
{"smiles": "COc1cc(C2c3cc4c(cc3C(OC3OC5COC(C)OC5C(O)C3O)C3COC(=O)C23)OCO4)cc(OC)c1O", "note": "(configuration not stated) + Cc1cccc(N(C)C(=O)C2C(O)CCN2c2nc(C)cc(C(F)(F)F)c2C#N)c1", "IC50": 0.397}
{"smiles": "CC1COCCN1c1cc(C2(S(C)(=N)=O)CC2)nc(-c2ccnc3[nH]ccc23)n1", "note": "(configuration not stated) + COC1C(OC(N)=O)C(O)C(Oc2ccc3c(O)c(NC(=O)c4ccc(O)c(CC=C(C)C)c4)c(=O)oc3c2C)OC1(C)C", "IC50": 2.44}
{"smiles": "COc1cccc2c1C(=O)c1c(O)c3c(c(O)c1C2=O)CC(O)(C(=O)CO)CC3OC1CC(N)C(O)C(C)O1", "note": "(configuration not stated) + Cc1cccc(N(C)C(=O)C2C(O)CCN2c2nc(C)cc(C(F)(F)F)c2C#N)c1", "IC50": 0.0705}
{"test_system": "935938-334-R-J1-PDC complex spheroid viability", "experiment": "Anticancer human tumor 935938-334-R-J1-PDC cell line growth inhibition [POLQ];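 further: spheroids exposed to drugs for seven days before viability read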", "conditions": "curve of first compound; second compound 10 µM", "summary_of_the_method": "as §1", "units": {"IC50": "µM"}}
{"smiles": "COc1ccc([C@@H](O)c2cc(-c3ncnc4cc(N5CCOCC5)ccc34)c(F)cc2Cl)nn1", "note": "+ COC1C(OC(N)=O)C(O)C(Oc2ccc3c(O)c(NC(=O)c4ccc(O)c(CC=C(C)C)c4)c(=O)oc3c2C)OC1(C)C", "IC50": 6.65}
{"smiles": "Nc1ccn(C2OC(CO)C(O)C2(F)F)c(=O)n1", "note": "(configuration not stated) + Cc1cccc(N(C)C(=O)C2C(O)CCN2c2nc(C)cc(C(F)(F)F)c2C#N)c1", "IC50": "< 0.0316"}
